Laboratory results taken from patent US20190100534A1, “Cephem Compounds with Latent Reactive Groups” (Gladius Pharmaceuticals, Inc., priority 2017, published 2019).

What was measured:
ENC (ATCC NDM-1) = experiment: MIC determination; type: cell-based, Enterobacter cloacae; details: CAMH broth, 20 μM Apo-Transferrin, 37° C., 18 hours
Outline: (§1)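 Broth microdilution in CAMH + 20 μM apo-transferrin; inoculum 0.5 McFarland, used within 30 min. Compound 64→0.125 μg/mL, twofold steps. 37 °C, 18 h. MIC = lowest clear-well concentration.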

[1] = system: Pseudomonas aeruginosa PA (URMC-2); experiment: MIC determination; type: cell-based; details: Pseudomonas aeruginosa; PA (URMC-2); CAMH broth, 20 μM Apo-Transferrin, 37° C., 18 hours; read-out: Minimum Inhibitory Concentrations, PA (URMC-2)
Outline: as §1

[2] = system: Pseudomonas aeruginosa (PA); experiment: MIC determination; type: cell-based; details: Pseudomonas aeruginosa; PA; CAMH broth, 20 μM Apo-Transferrin, 37° C., 18 hours; read-out: Minimum Inhibitory Concentrations, PA
Outline: as §1

[3] = system: Pseudomonas aeruginosa PA-RR-(980151052); experiment: MIC determination; type: cell-based; details: Pseudomonas aeruginosa; PA-RR-(980151052); CAMH broth, 20 μM Apo-Transferrin, 37° C., 18 hours; read-out: Minimum Inhibitory Concentrations, PA-RR-(980151052)
Outline: as §1

[4] = system: Pseudomonas aeruginosa PA-RR-(G7304100); experiment: MIC determination; type: cell-based; details: Pseudomonas aeruginosa; PA-RR-(G7304100); CAMH broth, 20 μM Apo-Transferrin, 37° C., 18 hours; read-out: Minimum Inhibitory Concentrations, PA-RR-(G7304100)
Outline: as §1

[5] = system: Pseudomonas aeruginosa PA-RR-(G8062859); experiment: MIC determination; type: cell-based; details: Pseudomonas aeruginosa; PA-RR-(G8062859); CAMH broth, 20 μM Apo-Transferrin, 37° C., 18 hours; read-out: Minimum Inhibitory Concentrations, PA-RR-(G8062859)
Outline: as §1

[6] = system: Pseudomonas aeruginosa PA (URMC-3); experiment: MIC determination; type: cell-based; details: Pseudomonas aeruginosa; PA (URMC-3); CAMH broth, 20 μM Apo-Transferrin, 37° C., 18 hours; read-out: Minimum Inhibitory Concentrations, PA (URMC-3)
Outline: as §1

KP(ATCC TEM-10/TEM-12) = type: cell-based, Klebsiella pneumoniae; details: CAMH broth, 20 μM Apo-Transferrin, 37° C., 18 hours
Outline: as §1

EC(ATCC NDM-1) = experiment: MIC determination; type: cell-based, Escherichia coli; details: Escherichia coli, CAMH broth, 20 μM Apo-Transferrin, 37° C., 18 hours, read-out: Minimum Inhibitory Concentrations, EC(ATCC NDM-1)
Outline: as §1

EC (URMC-1) = experiment: MIC determination; type: cell-based, Escherichia coli; details: Escherichia coli, CAMH broth, 20 μM Apo-Transferrin, 37° C., 18 hours, read-out: Minimum Inhibitory Concentrations, EC (URMC-1)
Outline: as §1

EC (URMC-3) = experiment: MIC determination; type: cell-based, Escherichia coli; details: Escherichia coli, CAMH broth, 20 μM Apo-Transferrin, 37° C., 18 hours, read-out: Minimum Inhibitory Concentrations, EC (URMC-3)
Outline: as §1

EC(JMI OXA-48) = experiment: MIC determination; type: cell-based, Escherichia coli; details: Escherichia coli, CAMH broth, 20 μM Apo-Transferrin, 37° C., 18 hours, read-out: Minimum Inhibitory Concentrations, EC(JMI OXA-48)
Outline: as §1

EC (RR -2) = experiment: MIC determination; type: cell-based, Escherichia coli; details: CAMH broth, 20 μM Apo-Transferrin, 37° C., 18 hours
Outline: as §1

EC(KB1 CTX-M-15) = experiment: MIC determination; type: cell-based, Escherichia coli; details: Escherichia coli, CAMH broth, 20 μM Apo-Transferrin, 37° C., 18 hours, read-out: Minimum Inhibitory Concentrations, EC(KB1 CTX-M-15)
Outline: as §1

EC (RR -1) = experiment: MIC determination; type: cell-based, Escherichia coli; details: CAMH broth, 20 μM Apo-Transferrin, 37° C., 18 hours
Outline: as §1

EC (URMC-2) = experiment: MIC determination; type: cell-based, Escherichia coli; details: Escherichia coli, CAMH broth, 20 μM Apo-Transferrin, 37° C., 18 hours, read-out: Minimum Inhibitory Concentrations, EC (URMC-2)
Outline: as §1

EC(KB2 CTX-M-15) = experiment: MIC determination; type: cell-based, Escherichia coli; details: Escherichia coli, CAMH broth, 20 μM Apo-Transferrin, 37° C., 18 hours, read-out: Minimum Inhibitory Concentrations, EC(KB2 CTX-M-15)
Outline: as §1

KP (ATCC KPC-3) = experiment: MIC determination; type: cell-based, Klebsiella pneumoniae; details: CAMH broth, 20 μM Apo-Transferrin, 37° C., 18 hours
Outline: as §1

KP (RR -1) = experiment: MIC determination; type: cell-based, Klebsiella pneumoniae; details: CAMH broth, 20 μM Apo-Transferrin, 37° C., 18 hours
Outline: as §1

KP (URMC-3) = experiment: MIC determination; type: cell-based, Klebsiella pneumoniae; details: CAMH broth, 20 μM Apo-Transferrin, 37° C., 18 hours
Outline: as §1

KP(GJ 5934 TEM-26) = experiment: MIC determination; type: cell-based, Klebsiella pneumoniae; details: CAMH broth, 20 μM Apo-Transferrin, 37° C., 18 hours
Outline: as §1

KP (GJ 5659 TEM-26) = experiment: MIC determination; type: cell-based, Klebsiella pneumoniae; details: CAMH broth, 20 μM Apo-Transferrin, 37° C., 18 hours
Outline: as §1

KP(JMI KPC-2) = experiment: MIC determination; type: cell-based, Klebsiella pneumoniae; details: CAMH broth, 20 μM Apo-Transferrin, 37° C., 18 hours
Outline: as §1

KP (URMC-2) = experiment: MIC determination; type: cell-based, Klebsiella pneumoniae; details: CAMH broth, 20 μM Apo-Transferrin, 37° C., 18 hours
Outline: as §1

KP (URMC-1) = experiment: MIC determination; type: cell-based, Klebsiella pneumoniae; details: CAMH broth, 20 μM Apo-Transferrin, 37° C., 18 hours
Outline: as §1

ENA (URMC-2) = experiment: MIC determination; type: cell-based, Enterobacter aerogenes; details: Klebsiella aerogenes, CAMH broth, 20 μM Apo-Transferrin, 37° C., 18 hours, read-out: Minimum Inhibitory Concentrations, ENA (URMC-2)
Outline: as §1

ENA (URMC-1) = experiment: MIC determination; type: cell-based, Enterobacter aerogenes; details: Klebsiella aerogenes, CAMH broth, 20 μM Apo-Transferrin, 37° C., 18 hours, read-out: Minimum Inhibitory Concentrations, ENA (URMC-1)
Outline: as §1

EA (URMC -3) = experiment: MIC determination; type: cell-based; details: CAMH broth, 20 μM Apo-Transferrin, 37° C., 18 hours
Outline: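 Organisms grown in LB at 37 °C to OD600 >0.1, adjusted to 0.08-0.1 OD600 in CAMH broth. Compounds two-fold serially diluted from 64 μg/mL in CAMH broth with 20 μM apo-transferrin; plates incubated 18 h at 37 °C. MIC taken as lowest concentration giving a transparent well.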

## CC(C)(O/N=C(\C(=O)N[C@@H]1C(=O)N2C(C(=O)O)=C(C=Cc3ccc(C[N+]4(C)CCc5ccc(O)c(O)c5C4)cc3)CS[C@H]12)c1csc(N)n1)C(=O)O (mixture of isomers) [Compound 442, 2-(4-((E/Z)-2-((6R,7R)-7-((Z)-2-(2-aminothiazol-4-yl)-2-(((2-carboxypropan-2-yl)oxy)imino)acetamido)-2-carboxy-8-oxo-5-thia-1-azabicyclo[4.2.0]oct-2-en-3 yl)vinyl)benzyl)-7,8-dihydroxy-2-methyl-1,2,3,4-tetrahydroisoquinolin-2-ium]
ENC (ATCC NDM-1)
  Mimimum Inhibitory Concentrations, ENC (ATCC NDM-1): >64 microgram/mL
[1]
  MIC: 0.25 µg/mL
[2]
  MIC: 0.13 µg/mL
[3]
  MIC: 2 µg/mL
[4]
  MIC: ≤ 0.06 µg/mL
[5]
  MIC: 0.25 µg/mL
[6]
  MIC: 0.5 µg/mL
KP(ATCC TEM-10/TEM-12)
  Minimum Inhibitory Concentrations, KP(ATCC TEM-10/TEM-12): 4 microgram/mL
EC(ATCC NDM-1)
  MIC: > 64 µg/mL
EC (URMC-1)
  MIC: 0.25 µg/mL
EC (URMC-3)
  MIC: 0.13 µg/mL
EC(JMI OXA-48)
  MIC: 4 µg/mL
EC (RR -2)
  Mimimum Inhibitory Concentrations, EC (RR -2): 0.13 microgram/mL
EC(KB1 CTX-M-15)
  MIC: 32 µg/mL
EC (RR -1)
  Mimimum Inhibitory Concentrations, EC (RR -1): 0.25 microgram/mL
EC (URMC-2)
  MIC: 0.13 µg/mL
EC(KB2 CTX-M-15)
  MIC: 32 µg/mL
KP (ATCC KPC-3)
  Minimum Inhibitory Concentrations, KP (ATCC KPC-3): >64 microgram/mL
KP (RR -1)
  Mimimum Inhibitory Concentrations, KP (RR -1): 0.25 microgram/mL
KP (URMC-3)
  Minimum Inhibitory Concentrations, KP (URMC-3): ≤0.06 microgram/mL
KP(GJ 5934 TEM-26)
  Minimum Inhibitory Concentrations, KP(GJ 5934 TEM-26): 0.5 microgram/mL
KP (GJ 5659 TEM-26)
  Minimum Inhibitory Concentrations, KP (GJ 5659 TEM-26): 0.5 microgram/mL
KP(JMI KPC-2)
  Minimum Inhibitory Concentrations, KP(JMI KPC-2): 64 microgram/mL
KP (URMC-2)
  Minimum Inhibitory Concentrations, KP (URMC-2): 0.25 microgram/mL
KP (URMC-1)
  Minimum Inhibitory Concentrations, KP (URMC-1): 0.13 microgram/mL
ENA (URMC-2)
  MIC: 1 µg/mL
ENA (URMC-1)
  MIC: 0.5 µg/mL
EA (URMC -3)
  Mimimum Inhibitory Concentrations, EA (URMC -3): 1 microgram/mL
